We go through 16 compounds from ChEMBL document CHEMBL4257513 (Medchemcomm, 2018).

Structures are written as SMILES. The source made the active and inactive calls. The rule behind the calls is not given here.

In test [1] the target is T1, Tyrosinase (Agaricus bisporus, UniProt O42713).
T1 sequence (O42713 whole entry): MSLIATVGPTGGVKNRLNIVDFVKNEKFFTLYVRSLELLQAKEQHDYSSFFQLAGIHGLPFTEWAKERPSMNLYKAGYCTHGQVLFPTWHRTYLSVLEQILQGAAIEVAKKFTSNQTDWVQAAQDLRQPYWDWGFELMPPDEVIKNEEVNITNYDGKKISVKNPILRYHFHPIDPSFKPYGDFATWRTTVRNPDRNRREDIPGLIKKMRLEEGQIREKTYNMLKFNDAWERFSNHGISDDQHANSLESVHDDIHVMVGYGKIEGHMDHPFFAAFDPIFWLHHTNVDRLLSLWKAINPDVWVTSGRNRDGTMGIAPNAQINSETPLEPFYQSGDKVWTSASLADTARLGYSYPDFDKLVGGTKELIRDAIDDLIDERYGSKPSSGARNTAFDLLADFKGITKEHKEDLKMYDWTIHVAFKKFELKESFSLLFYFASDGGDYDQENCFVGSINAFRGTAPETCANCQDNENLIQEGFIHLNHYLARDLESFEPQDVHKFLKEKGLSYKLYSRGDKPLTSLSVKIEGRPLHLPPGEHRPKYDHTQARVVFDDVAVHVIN
Description: Inhibition of mushroom tyrosinase using L-dopa as substrate preincubated for 10 mins followed by substrate addition and measured for 1 min by spectrophotometric method

Test [2] deals with T2, Tyrosinase (Agaricus bisporus) (UniProt O42713).
T2 sequence (whole entry): T1 sequence (O42713 whole entry)
Briefly: Inhibition of mushroom tyrosinase at 100 uM using L-dopa as substrate preincubated for 10 mins followed by substrate addition and measured for 1 min by spectrophotometric method relative to control.

The target in test [3] is T1, Tyrosinase. Nature of the test: Noncompetitive inhibition of mushroom tyrosinase using varying levels of L-dopa as substrate preincubated for 10 mins followed by substrate addition and measured for 1 min by Lineweaver-burk plot analysis.
In test [4] the target is T2, Tyrosinase (Agaricus bisporus). Briefly: Potency index, ratio of kojic acid IC50 to test compound IC50 for mushroom tyrosinase.
The target of test [5] is T1, Tyrosinase. Nature of the test: Noncompetitive inhibition of mushroom tyrosinase assessed as inhibitory constant for enzyme-substrate complex using varying levels of L-dopa as substrate preincubated for 10 mins followed by substrate addition and measured for 1 min by Lineweaver-burk plot analysis.
Test [6] addresses T2, Tyrosinase (Agaricus bisporus). Briefly: Reversible inhibition of mushroom tyrosinase up to 5 uM using L-dopa as substrate preincubated for 10 mins followed by substrate addition and measured for 1 min by spectrophotometric method.
Test [7] deals with T1, Tyrosinase. Briefly: Mixed-type inhibition of mushroom tyrosinase assessed as inhibitory constant for enzyme-substrate complex using varying levels of L-dopa as substrate preincubated for 10 mins followed by substrate addition and measured for 1 min by Lineweaver-burk plot analysis.
Test [8] addresses T2, Tyrosinase (Agaricus bisporus). Nature of the test: Reversible inhibition of mushroom tyrosinase at 5 to 20 uM using L-dopa as substrate preincubated for 10 mins followed by substrate addition and measured for 1 min by spectrophotometric method.
The target in test [9] is T1, Tyrosinase. Nature of the test: Mixed-type inhibition of mushroom tyrosinase using varying levels of L-dopa as substrate preincubated for 10 mins followed by substrate addition and measured for 1 min by Lineweaver-burk plot analysis.
The target in test [10] is T2, Tyrosinase (Agaricus bisporus). Briefly: Reversible inhibition of mushroom tyrosinase at 2 to 20 uM using L-dopa as substrate preincubated for 10 mins followed by substrate addition and measured for 1 min by spectrophotometric method.

The IC50 is the concentration needed to halve the response being measured. Lower therefore signals inhibition by little substance. On Tyrosinase [1], `O=C(O)/C=C/c1ccc(O)cc1` [COUMARIC ACID] yielded a 50% inhibitory concentration (IC50) of 4710 µM. In other words, the millimolar range.

One may read the inhibition as the drop in the measured response relative to a control, in per cent. Consider `COc1cc(/C=C/C(=O)Oc2cc(C)ccc2C(C)C)ccc1O`, for which the IC50 against Tyrosinase [1] was greater than 100 µM. In [2], this compound yielded an inhibition of less than 40%.

In general, Ki refers to a dissociation constant, usually derived from enzyme kinetics or from competition with a known ligand. With `COc1ccc(C(C)=O)c(OC(=O)/C=C/c2ccc(O)cc2)c1`, the Ki at Tyrosinase [3] and on Tyrosinase [5] was 3.8 µM in each case. Also, the Ratio IC50 in test [4] amounted to 16. The compound further yielded an IC50 against Tyrosinase [1] of 2 µM. Also, the inhibition in test [2] is greater than 40%. Also, the inhibition result in test [6] is “Active”.

`COc1ccc(C(C)=O)c(OC(=O)/C=C/c2ccc(Cl)cc2)c1` displayed an IC50 at Tyrosinase [1] of 164 µM. Further, the inhibition in test [2] was greater than 40%.

`COc1ccc(/C=C/C(=O)Oc2cc(OC)ccc2C(C)=O)cc1`: inhibition against Tyrosinase [1] was half-maximal at 77.4 µM (IC50). Moreover, the inhibition in [2] was greater than 40%.

Take `Cc1ccc(C(C)C)c(OC(=O)/C=C/c2ccc(Cl)cc2)c1`: the IC50 on Tyrosinase [1] is greater than 100 µM. Further, the inhibition in test [2] was less than 40%.

`Cc1ccc(C(C)C)c(OC(=O)/C=C/c2ccc(F)cc2)c1` yielded an IC50 at Tyrosinase [1] greater than 100 µM. Further, in test [2], the inhibition is less than 40%.

Regarding `COc1ccc(/C=C/C(=O)Oc2cc(C)ccc2C(C)C)cc1`, the half-inhibitory concentration (IC50) on Tyrosinase [1] is greater than 100 µM. Also, the inhibition in test [2] is less than 40%.

On to `COc1ccc(C(C)=O)c(O)c1` [PAEONOL], for which, at Tyrosinase [1], it took 121 µM to reach half-maximal inhibition (IC50).

On to `COc1ccc(C(C)=O)c(OC(=O)/C=C/c2ccc(O)c(OC)c2)c1`, for which the IC50 at Tyrosinase [1] is greater than 100 µM. Besides, the inhibition in [2] is less than 40%.

`Cc1ccc(C(C)C)c(OC(=O)/C=C/c2ccccc2)c1` returned an IC50 on Tyrosinase [1] greater than 100 µM. In [2], this compound yielded an inhibition of less than 40%.

`Cc1ccc(/C=C/C(=O)Oc2cc(C)ccc2C(C)C)cc1` displayed a half-inhibitory concentration (IC50) at Tyrosinase [1] greater than 100 µM. For the same compound, the inhibition in test [2] was less than 40%.

As for `COc1ccc(C(C)=O)c(OC(=O)/C=C/c2ccccc2)c1`, at Tyrosinase [1], the half-maximal inhibitory concentration (IC50) is greater than 100 µM. The inhibition in test [2] was less than 40%.

Take `Cc1ccc(C(C)C)c(OC(=O)/C=C/c2ccc(O)cc2)c1`: the inhibitory constant (Ki) on Tyrosinase [7] is 72.2 µM; on Tyrosinase [9] it was 8 µM. Moreover, in test [4], the Ratio IC50 came to 3. Further, the inhibition result in test [8] was “Active”. This compound also yielded a half-maximal inhibitory concentration (IC50) against Tyrosinase [1] of 10.6 µM. The compound also gave an inhibition in test [2] greater than 40%.

For `COc1ccc(C(C)=O)c(OC(=O)/C=C/c2ccc(C)cc2)c1`, at Tyrosinase [1], inhibition was half-maximal at 39 µM (IC50). In [2], this compound gave an inhibition greater than 40%.

As for `COc1ccc(C(C)=O)c(OC(=O)/C=C/c2ccc(F)cc2)c1`, the results for the Ki on Tyrosinase [7] and at Tyrosinase [9] were 35.6 µM and 10 µM, respectively. This compound also gave a half-maximal inhibitory concentration (IC50) at Tyrosinase [1] of 8.3 µM. In addition, in [2], the inhibition is greater than 40%. Besides, the inhibition result in test [10] was “Active”.
